According to publication PMC11672294, “The Antipsychotic Drug Aripiprazole Suppresses Colorectal Cancer by Targeting LAMP2a to Induce RNH1/miR‐99a/mTOR‐Mediated Autophagy and Apoptosis” (Advanced Science, 2024):
Counter-ions that a name gives are not always drawn. Starred links: 1 amine or outer side, 2 acyl side, 3 side chain; linkers in the order of their positions; H or OH if unused. Positions of bridges follow the written chain, without caps; N, C: chain ends. Non-standard residues stand in square brackets, D forms with d. Residues, ends and D or L forms follow the SMILES beside them. *: point of attachment. pTerphenylCO(4''-OnC5H11) = CCCCCOc1ccc(-c2ccc(-c3ccc(C(=O)*)cc3)cc2)cc1; Orn(4R-OH,5R-OH) = O=C([C@H](C[C@@H](O)[C@@H](O)N[*:3])N[*:1])[*:2]; hTyr(3S-OH,4S-OH) = N[C@H](C(=O)O)[C@H](O)[C@@H](O)c1ccc(O)cc1; Pro(3S-OH,4S-Me) = C[C@H]1CN[C@H](C(=O)O)[C@H]1O; Hyp = O=C(O)[C@@H]1C[C@@H](O)CN1

Each compound was assayed on HT29. Settings: 72 h, relative to DMSO, 10 µM, Relative cell viability (%).
Text: To investigate the key signaling pathways and biological processes involved in CRC progression, we analyzed the National Center for Biotechnology Information Gene Expression Omnibus (GEO) dataset GSE115313, which included 42 CRC and paired normal tissues (Figure 1A). […] Next, we performed an Annexin V‐fluorescein isothiocyanate (FITC)/propidium iodide (PI) staining assay to determine the effect of aripiprazole on apoptosis in CRC cells. […] A) Principal component analysis of GEO dataset (GSE115313), which includes 42 CRC and paired normal tissues. B) Gene Ontology pathway analysis of the DEPs between CRC and paired normal tissues. […] D) Schematic diagram for identifying anticancer drugs amongst an US Food and Drug Administration‐approved small‐molecule library (616 compounds) using WST‐1 assay. E) HT29 cells were treated with the 616 drugs (10 µM) individually or with dimethyl sulfoxide for 72 h, followed by WST‐1 assay. […] J) Mice bearing HT29‐derived tumor xenografts were intragastrically administered with aripiprazole (10 or 20 mg kg^−1) once every 2 d, n = 6 mice/group. […] Bars, SD; ^* p < 0.05; ^** p < 0.01; ^*** p < 0.001; ns, no significant difference. The WST‐1 Cell Proliferation and Cytotoxicity Assay Kit (Beyotime Biotechnology, Shanghai, China) was used to measure cell viability, as described previously.^[ [10] ^] CRC cells were seeded into 96‐well plates and treated with different drug concentrations. Following that, WST‐1 was added to the plate and incubated with the cells for 2 h, at 37 °C. Absorbance at the wavelength of 450 nm was measured using an automated microplate spectrophotometer (BioTek Instruments, Winooski, VT, USA).

Row | Structure (SMILES) | Relative cell viability (%) [%]
1 | Cc1c(-c2ccc(O)cc2)n(Cc2ccc(OCCN3CCCCCC3)cc2)c2ccc(O)cc12 [Bazedoxifene HCl] | 91.36
2 | COc1ccc(C[C@@H]2c3cc(OC)c(OC)cc3CC[N@+]2(C)CCC(=O)OCCCCCOC(=O)CC[N@@+]2(C)CCc3cc(OC)c(OC)cc3[C@H]2Cc2ccc(OC)c(OC)c2)cc1OC [Atracurium Besylate] | 91.95
3 | O=C(O)Cc1ccccc1Nc1c(Cl)cccc1Cl [Diclofenac Diethylamine] | 60.68
4 | COc1cc2nc(N3CCN(C(=O)C4CCCO4)CC3)nc(N)c2cc1OC (centres unmarked) [Terazosin] | 88.03
5 | COc1ccc2nc([S@@+]([O-])Cc3ncc(C)c(OC)c3C)[nH]c2c1 [Esomeprazole Magnesium] | 80.51
6 | C[C@@H]1CCN(C(=O)CC#N)C[C@@H]1N(C)c1ncnc2[nH]ccc12 [Tofacitinib (CP-690550,Tasocitinib)] | 51.94
7 | O=C(O)Cc1ccccc1Nc1c(Cl)cccc1Cl [Diclofenac Sodium] | 111.9

Same assay, conditions: 72 h, relative to DMSO; 10 µM

Row | Structure (SMILES) | Relative cell viability (%) [%]
8 | C#C[C@]1(O)C=C[C@H]2[C@@H]3CCC4=CC(=O)CC[C@@H]4[C@H]3CC[C@@]21CC [Gestodene] | 69.63
9 | NC(=O)[C@@H](CCC(F)(F)F)N(Cc1ccc(-c2ncon2)cc1F)S(=O)(=O)c1ccc(Cl)cc1 [Avagacestat (BMS-708163)] | 74.3
10 | CN1CCN2c3ccccc3Cc3ccccc3C2C1 (centres unmarked) [Mianserin HCl] | 57.17
11 | Cc1noc(NS(=O)(=O)c2ccc(N)cc2)c1C [Sulfisoxazole] | 134.3
12 | COc1cc([C@@H]2c3cc4c(cc3[C@@H](O[C@@H]3O[C@@H]5CO[C@@H](C)O[C@H]5[C@H](O)[C@H]3O)[C@H]3COC(=O)[C@H]23)OCO4)cc(OC)c1O [Etoposide] | 117.9
13 | CCn1cc(C(=O)O)c(=O)c2cc(F)c(N3CCNCC3)nc21 [Enoxacin] | 74.15
14 | CCOc1ccc2nc3cc(N)ccc3c(N)c2c1 [Ethacridine lactate monohydrate] | 39.39
15 | OC[C@H]1O[C@@H](c2ccc(Cl)c(Cc3ccc(O[C@H]4CCOC4)cc3)c2)[C@H](O)[C@@H](O)[C@@H]1O [Empagliflozin (BI 10773)] | 75.21
16 | Cc1c(N)nc([C@H](CC(N)=O)NC[C@H](N)C(N)=O)nc1C(=O)N[C@H](C(=O)N[C@H](C)[C@@H](O)[C@H](C)C(=O)N[C@H](C(=O)NCCc1nc(-c2nc(C(=O)NCCC[S+](C)C)cs2)cs1)[C@@H](C)O)[C@@H](O[C@@H]1O[C@@H](CO)[C@@H](O)[C@H](O)[C@@H]1O[C@H]1O[C@H](CO)[C@@H](O)[C@H](OC(N)=O)[C@@H]1O)c1c[nH]cn1 [Bleomycin Sulfate] | 74.3
17 | CCCCCCCCCCCC[N+](C)(C)CCOc1ccccc1 [Domiphen Bromide] | 82.12
18 | CCCCCOc1ccc(-c2ccc(-c3ccc(C(=O)N[C@H]4C[C@@H](O)[C@@H](O)NC(=O)[C@@H]5[C@@H](O)[C@@H](C)CN5C(=O)[C@H]([C@@H](C)O)NC(=O)[C@H]([C@H](O)[C@@H](O)c5ccc(O)cc5)NC(=O)[C@@H]5C[C@@H](O)CN5C(=O)[C@H]([C@@H](C)O)NC4=O)cc3)cc2)cc1 [Anidulafungin (LY303366)] ({pTerphenylCO(4''-OnC5H11)}-[Orn(4R-OH,5R-OH)]T[Hyp][hTyr(3S-OH,4S-OH)]T[Pro(3S-OH,4S-Me)]; lactam 1-C) | 71.21
19 | O=C1CC2(CCCC2)CC(=O)N1CCCCN1CCN(c2ncccn2)CC1 [Buspirone HCl] | 73.94
20 | O=C1CC[C@@]2(O)[C@H]3Cc4ccc(O)c5c4[C@@]2(CCN3CC2CC2)[C@H]1O5 [Naltrexone HCl] | 104.3
21 | Cc1cncc(CN2CCC(=C3c4ccc(Cl)cc4CCc4cccnc43)CC2)c1 [Rupatadine Fumarate] | 83.98
22 | CC[C@@]1(O)C(=O)OCc2c1cc1n(c2=O)Cc2cc3c(CN(C)C)c(O)ccc3nc2-1 [Topotecan HCl] | 16.67
23 | Nc1nc(Cl)nc2c1ncn2[C@@H]1O[C@H](CO)[C@@H](O)[C@@H]1F [Clofarabine] | 43.15
24 | O=C(O)CSCC(=O)NC1CCSC1=O (centres unmarked) [Erdosteine] | 104.7
25 | CCCCCCCCCCCCCCCC[N+](C)(C)C [Cetrimonium Bromide (CTAB)] | 18.48
26 | Cc1ccc(=O)n(-c2ccccc2)c1 [Pirfenidone] | 56.31
27 | O=C(CCCN1CCC(O)(c2ccc(Cl)cc2)CC1)c1ccc(F)cc1 [Haloperidol] | 29.34
28 | Nc1ccc(/N=N/c2ccccc2)c(N)n1 [Phenazopyridine HCl] | 73.94
29 | Cc1nnc(C(C)C)n1[C@@H]1C[C@H]2CC[C@@H](C1)N2CC[C@H](NC(=O)C1CCC(F)(F)CC1)c1ccccc1 [Maraviroc] | 135.7
30 | C[C@@](Cc1ccc(O)c(O)c1)(NN)C(=O)O [Carbidopa] | 97.03
31 | CN(C)CCN1C(=O)c2cccc3cc(N)cc(c23)C1=O [Amonafide] | 8.879
32 | CC[C@H]1[C@@H](O)[C@@H]2[C@H](CC[C@]3(C)[C@@H]([C@H](C)CCC(=O)O)CC[C@@H]23)[C@@]2(C)CC[C@@H](O)C[C@@H]12 [Obeticholic Acid] | 111.1

Row | Structure (SMILES) | Relative cell viability (%) [%]
33 | COc1cc(C(=O)O)ccc1NC(=O)[C@@H]1N[C@@H](CC(C)(C)C)[C@](C#N)(c2ccc(Cl)cc2F)[C@H]1c1cccc(Cl)c1F [Idasanutlin (RG-7388)] | 98.29
34 | CC(=O)N1CCN(c2ccc(OC[C@@H]3CO[C@@](Cn4ccnc4)(c4ccc(Cl)cc4Cl)O3)cc2)CC1 (racemic) [Ketoconazole] | 43.15
35 | CNC(=O)[C@H](Cc1c[nH]c2ccccc12)NC(=O)[C@@H](CC(=O)NO)CC(C)C [Ilomastat (GM6001, Galardin)] | 95.73
36 | CC(C(=O)O)c1ccc2c(c1)Cc1cccnc1O2 (centres unmarked) [Pranoprofen] | 135
37 | CC(C)=CCC/C(C)=C/CC/C(C)=C/CSc1ccccc1C(=O)O [Salirasib] | 84.19
38 | CC[C@@H]([C@H](C)O)n1ncn(-c2ccc(N3CCN(c4ccc(OC[C@@H]5CO[C@@](Cn6cncn6)(c6ccc(F)cc6F)C5)cc4)CC3)cc2)c1=O [Posaconazole] | 32.24
39 | C#Cc1cccc(Nc2ncnc3cc(OCCOC)c(OCCOC)cc23)c1 [Erlotinib] | 79.06
40 | CN(C)/N=N/c1[nH]cnc1C(N)=O [Dacarbazine] | 91.43
41 | COCCOC(=O)C1=C(C)NC(C)=C(C(=O)OC(C)C)C1c1cccc([N+](=O)[O-])c1 (centres unmarked) [Nimodipine] | 53.81
42 | CCS(=O)(=O)N1CCN(c2ccc(Nc3ncc(C(N)=O)c(NC4CC4)n3)cc2)CC1 [Cerdulatinib (PRT062070, PRT2070)] | 36.75
43 | CCCc1nn(C)c2c(=O)[nH]c(-c3cc(S(=O)(=O)N4CCN(C)CC4)ccc3OCC)nc12 [Sildenafil Mesylate] | 91.88
44 | Cc1c(F)cc(C(=O)NC2CC2)cc1-c1ccc(C(=O)NCC(C)(C)C)cn1 [Losmapimod (GW856553X)] | 94.44
45 | COCCCC/C(=N\OCCN)c1ccc(C(F)(F)F)cc1 [Fluvoxamine maleate] | 72.74
46 | CN(C)CCOc1ccc(/C(=C(/CCCl)c2ccccc2)c2ccccc2)cc1 [Toremifene Citrate] | 34.75
47 | Cn1c(COP(=O)(NCCBr)NCCBr)cnc1[N+](=O)[O-] [TH-302] | 83.98
48 | CC(C)c1nc(CN(C)C(=O)N[C@@H](CCN2CCOCC2)C(=O)N[C@H](CC[C@H](Cc2ccccc2)NC(=O)OCc2cncs2)Cc2ccccc2)cs1 [Cobicistat (GS-9350)] | 63.59
49 | FC(F)(F)c1ccc(CNc2ccc(Cc3c[nH]c4ncc(Cl)cc34)cn2)cn1 [Pexidartinib (PLX3397)] | 54.7
50 | Cc1ccc(-c2cc(C(F)(F)F)nn2-c2ccc(S(N)(=O)=O)cc2)cc1 [Celecoxib] | 69.63
51 | CC1CNc2c(cccc2S(=O)(=O)N[C@@H](CCCNC(=N)N)C(=O)N2CC[C@@H](C)C[C@@H]2C(=O)O)C1 (some centres unmarked) [Argatroban] | 123.2
52 | CS(=O)(=O)c1ccc([C@@H](O)[C@@H](CF)NC(=O)C(Cl)Cl)cc1 [Florfenicol] | 85.76
53 | CC(=O)[C@H]1CC[C@H]2[C@@H]3CC=C4C[C@@H](O)CC[C@]4(C)[C@H]3CC[C@]12C [Pregnenolone] | 94.21
54 | CC(C)Oc1ccc(-c2nc(-c3cccc4c3CC[C@@H]4NCCO)no2)cc1C#N [Ozanimod (RPC1063)] | 47.01
55 | CC(CN1c2ccccc2Sc2ccccc21)N(C)C (centres unmarked) [Promethazine HCl] | 62.12
56 | C[C@H](Nc1ncnc2[nH]cnc12)c1cc2cccc(Cl)c2c(=O)n1-c1ccccc1 [IPI-145 (INK1197)] | 79.06
